The results in this text go back to US20220356174A1, “PYRIDIN-2-ONE COMPOUNDS USEFUL AS SMARCA2 ANTAGONISTS” (Epizyme, Inc., priority 2018, published 2022).

Assay [1] addresses T1, FL-SMARCA2 (full-length human SMARCA2 isoform 1) (Homo sapiens, UniProt P51531).
T1 construct: FLAG tag (YKDDDDK) (C); made in house; host or cells: Sf21 insect cells (baculovirus, pFastBacI)
Kind of assay: SMARCA2 ATPase activity assay (ADP-Glo, chicken mononucleosome substrate). The settings on record: ATPase assay, enzyme 5 nM, ATP 250 uM, chicken mononucleosome 10 nM, 30 min preincubation. It counts as biochemical.

Assay [2] has as its target T2, SMARCA2 (Homo sapiens, UniProt P51531).
T2 construct: FLAG tag (YKDDDDK) (C); made in house; host or cells: Sf21 insect cells (baculovirus, pFastBacI)
Kind of assay: SMARCA2 FRET nucleosome remodeling activity assay. It counts as biochemical. On the procedure:
The SMARCA2 remodeling assay was initiated by the addition of 2 uL of a nucleosome remodeling assay substrate and ATP mixture (final volume=10 uL). […] The assays were terminated after 15 minutes by the addition of 2 uL EDTA (final concentration of 25 mM). The SMARCA2 remodeling activity was determined by measuring the fluorescence ratio of the Cy3 and Cy5 labels ([…]). The remodeling of the nucleosome substrate causes an increase in the spacing between the Cy3 and Cy5 labels and therefore a reduction in FRET and an increase in Cy3/Cy5 fluorescence ratio.

In assay [3] the test system is A549 cells. Kind of assay: High-throughput proliferation (HTP) assay for A549 cells (CellTiter-Glo, 7 days). It counts as cell-based. The settings on record: Homo sapiens, 168 h, read-out: A549 SMARCA2 IC50. In a few lines:
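Seven-day growth of A549 (62.5 cells/well, F12K with 10% HI-FBS, 37° C.) with compound, read by CellTiter-Glo ATP luminescence. Percent inhibition scaled between DMSO wells and 10 μM Doxorubicin wells, then fitted for EC50 and IC50.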
In general terms: Cellular ATP, detected with luciferase, serves as a proxy for viable cell number.

Assay [4] deals with A549 cells. The assay is described as follows: Long term proliferation (LTP) assay, day 15 IC50 in A549 cells. It is filed as cell-based. The settings on record: Homo sapiens, 360 h.
The target of assay [5] is FL-SMARCA4 (Homo sapiens, UniProt P51532). Kind of assay: SMARCA4 ATPase activity assay (ADP-Glo, chicken mononucleosome substrate). On the technique in general: In ADP-Glo the light output rises with the ADP produced.
The test system of assay [6] is H358 cells. Kind of assay: High-throughput proliferation (HTP) assay for H358 cells (CellTiter-Glo, 7 days). It counts as cell-based. The settings on record: Homo sapiens, NCI-H358, 168 h, read-out: H358 SMARCA2 IC50. Summed up: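 Cells were plated at 1,000 cells/well in RPMI 1640 + 10% HI-FBS + 1% pen/strep on pre-dispensed compound and incubated 7 days at 37 °C, 5% CO2. Viability was read as ATP luminescence with CellTiter-Glo after 30 min at RT. DMSO served as 0% and 10 µM doxorubicin as 100% inhibition for EC50/IC50.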

Where [7] appears, read: FL-SMARCA4 IC50, Table 3.2, ATPase assay, enzyme 5 nM, ATP 250 uM, chicken mononucleosome 10 nM, 30 min preincubation.
The mark [8] stands for this setting: FL-SMARCA4 IC>50, Table 3c.2, ATPase assay, enzyme 5 nM, ATP 250 uM, chicken mononucleosome 10 nM, 30 min preincubation.

Read-outs that look alike come from different tables or passages of the source.

Chain of FL-SMARCA4 (P51532 whole entry): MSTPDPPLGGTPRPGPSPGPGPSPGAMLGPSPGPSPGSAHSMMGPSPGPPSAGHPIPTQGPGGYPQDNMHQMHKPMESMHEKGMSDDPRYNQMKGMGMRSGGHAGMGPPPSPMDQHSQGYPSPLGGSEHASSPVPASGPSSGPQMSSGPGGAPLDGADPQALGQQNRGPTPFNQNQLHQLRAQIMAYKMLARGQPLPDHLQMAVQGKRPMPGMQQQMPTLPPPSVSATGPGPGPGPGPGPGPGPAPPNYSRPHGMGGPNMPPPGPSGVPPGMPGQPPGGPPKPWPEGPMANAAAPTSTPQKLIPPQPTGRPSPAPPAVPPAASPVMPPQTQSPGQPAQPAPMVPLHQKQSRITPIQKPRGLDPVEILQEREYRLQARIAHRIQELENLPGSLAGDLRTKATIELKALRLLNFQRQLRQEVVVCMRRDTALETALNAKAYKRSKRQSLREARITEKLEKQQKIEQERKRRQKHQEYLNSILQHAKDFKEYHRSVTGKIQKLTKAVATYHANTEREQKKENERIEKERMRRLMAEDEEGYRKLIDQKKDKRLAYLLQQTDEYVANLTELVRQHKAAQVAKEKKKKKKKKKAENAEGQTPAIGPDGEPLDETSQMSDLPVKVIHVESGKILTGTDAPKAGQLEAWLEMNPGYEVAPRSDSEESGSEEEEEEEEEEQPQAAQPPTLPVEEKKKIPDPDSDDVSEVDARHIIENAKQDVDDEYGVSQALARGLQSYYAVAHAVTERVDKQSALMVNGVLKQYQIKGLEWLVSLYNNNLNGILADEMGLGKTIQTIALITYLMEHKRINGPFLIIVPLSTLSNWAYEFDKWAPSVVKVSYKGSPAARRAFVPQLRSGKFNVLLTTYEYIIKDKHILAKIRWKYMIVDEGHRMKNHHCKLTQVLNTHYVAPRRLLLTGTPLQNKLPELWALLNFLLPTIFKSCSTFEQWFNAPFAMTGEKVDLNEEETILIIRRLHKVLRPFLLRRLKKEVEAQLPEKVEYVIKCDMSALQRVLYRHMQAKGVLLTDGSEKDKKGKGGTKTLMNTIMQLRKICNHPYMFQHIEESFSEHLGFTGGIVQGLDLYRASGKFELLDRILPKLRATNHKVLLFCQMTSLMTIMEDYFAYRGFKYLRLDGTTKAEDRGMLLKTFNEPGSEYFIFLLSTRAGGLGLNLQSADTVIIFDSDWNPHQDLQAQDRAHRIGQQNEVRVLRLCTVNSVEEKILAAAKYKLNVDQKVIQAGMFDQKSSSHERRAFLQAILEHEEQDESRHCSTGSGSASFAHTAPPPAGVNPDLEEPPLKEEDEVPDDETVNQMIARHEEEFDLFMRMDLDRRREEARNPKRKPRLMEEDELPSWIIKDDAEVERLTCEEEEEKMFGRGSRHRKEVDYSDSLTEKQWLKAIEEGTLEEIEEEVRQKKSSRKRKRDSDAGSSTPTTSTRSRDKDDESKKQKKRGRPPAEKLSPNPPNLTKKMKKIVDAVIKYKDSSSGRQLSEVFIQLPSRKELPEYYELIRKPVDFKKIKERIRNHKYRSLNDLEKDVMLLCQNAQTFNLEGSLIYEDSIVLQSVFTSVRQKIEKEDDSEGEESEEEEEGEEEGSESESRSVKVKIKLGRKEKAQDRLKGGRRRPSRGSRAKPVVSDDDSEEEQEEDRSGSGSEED
T2 sequence (P51531 with tags, fused parts or gaps): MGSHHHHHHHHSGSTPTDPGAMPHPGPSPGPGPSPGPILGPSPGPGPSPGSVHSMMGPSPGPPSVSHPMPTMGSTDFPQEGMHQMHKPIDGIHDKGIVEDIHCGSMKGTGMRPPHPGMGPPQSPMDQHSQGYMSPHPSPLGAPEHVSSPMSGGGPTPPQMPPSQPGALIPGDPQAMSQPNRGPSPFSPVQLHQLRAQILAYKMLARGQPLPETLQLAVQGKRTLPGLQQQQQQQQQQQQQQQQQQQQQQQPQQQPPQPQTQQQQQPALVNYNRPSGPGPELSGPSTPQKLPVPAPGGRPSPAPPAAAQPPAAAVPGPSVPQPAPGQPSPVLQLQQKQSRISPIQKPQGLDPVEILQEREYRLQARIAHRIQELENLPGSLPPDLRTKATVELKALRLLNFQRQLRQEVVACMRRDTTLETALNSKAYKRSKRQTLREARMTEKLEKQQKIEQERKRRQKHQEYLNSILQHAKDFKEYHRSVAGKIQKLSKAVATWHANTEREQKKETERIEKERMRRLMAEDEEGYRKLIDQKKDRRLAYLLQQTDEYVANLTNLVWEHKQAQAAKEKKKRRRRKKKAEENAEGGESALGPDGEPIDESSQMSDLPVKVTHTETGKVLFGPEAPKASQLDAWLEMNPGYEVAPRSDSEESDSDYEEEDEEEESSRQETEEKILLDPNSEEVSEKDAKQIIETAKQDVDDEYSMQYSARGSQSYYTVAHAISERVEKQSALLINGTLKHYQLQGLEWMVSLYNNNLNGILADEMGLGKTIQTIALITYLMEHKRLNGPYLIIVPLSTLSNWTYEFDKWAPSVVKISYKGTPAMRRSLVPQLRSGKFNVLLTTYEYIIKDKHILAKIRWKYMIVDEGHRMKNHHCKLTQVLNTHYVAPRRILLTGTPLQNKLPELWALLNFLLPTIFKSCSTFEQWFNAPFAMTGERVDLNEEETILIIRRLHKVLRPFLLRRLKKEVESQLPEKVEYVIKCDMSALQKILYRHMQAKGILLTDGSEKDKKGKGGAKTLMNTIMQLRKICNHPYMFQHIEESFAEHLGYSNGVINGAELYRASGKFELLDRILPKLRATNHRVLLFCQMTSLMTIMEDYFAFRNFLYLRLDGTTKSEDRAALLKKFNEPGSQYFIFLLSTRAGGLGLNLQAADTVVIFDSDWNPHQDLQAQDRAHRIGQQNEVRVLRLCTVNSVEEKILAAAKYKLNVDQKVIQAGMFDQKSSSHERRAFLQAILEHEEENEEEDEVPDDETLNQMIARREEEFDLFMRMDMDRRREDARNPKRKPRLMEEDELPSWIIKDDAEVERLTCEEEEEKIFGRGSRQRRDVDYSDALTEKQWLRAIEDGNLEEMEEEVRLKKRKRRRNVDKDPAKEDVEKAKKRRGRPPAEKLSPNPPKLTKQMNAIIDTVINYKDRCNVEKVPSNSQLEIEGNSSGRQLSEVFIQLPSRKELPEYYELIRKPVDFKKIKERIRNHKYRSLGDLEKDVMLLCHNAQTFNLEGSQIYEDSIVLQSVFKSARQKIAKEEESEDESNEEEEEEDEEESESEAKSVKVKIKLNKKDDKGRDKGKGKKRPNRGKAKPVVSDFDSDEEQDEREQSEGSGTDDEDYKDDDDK
T1 sequence (P51531 with tags, fused parts or gaps): as above

In the case of `O=C(Nc1cc(F)c(=O)n(CCF)c1)c1cnc(Cl)s1` [Compound 142], the IC50 is 0.0474 µM in assay [1] (Table 3.1); 0.06 µM in assay [2]; 1.34 µM in assay [3]; 0.534 µM in assay [4]; 0.163 µM in assay [5] (setting [7]).
For the compound `O=C(Nc1cc(Cl)c(=O)n(CCF)c1)c1cc(Cl)c(Cl)s1` [Compound 101], the IC50 in assay [1] (Table 3.1) is 0.0741 µM; in assay [2], 0.314 µM; in assay [3], 2.27 µM; in assay [4], 0.356 µM; in assay [5] (setting [7]) it was 0.237 µM.
`N#Cc1ncc(C(=O)Nc2cc(F)c(=O)n(CCF)c2)s1` [Compound 138]: the IC50 in assay [1] (Table 3.1) was 0.00642 µM; in assay [2], 0.0143 µM; in assay [3], not below 20 µM; in assay [4], not below 20 µM; in assay [5] (setting [7]), 0.0161 µM.
In the case of `CCn1cc(NC(=O)c2cc(Cl)c(Cl)s2)ncc1=O` [Compound 18d], the IC50 in assay [1] (Table 3d.1, read-out: FL-SMARCA2 IC>50) was more than 50 µM; in assay [4] it was not below 30 µM; in assay [5] (FL-SMARCA4 IC50), more than 50 µM.
Regarding `Cc1cc(C#Cc2cc(C(=O)Nc3cc(F)c(=O)n(CC(F)F)c3)sc2Cl)sn1` [Compound 64c], the IC50 in assay [1] (Table 3c.1) was 0.00879 µM; in assay [3] it was 0.374 µM; in assay [6] it was more than 10 µM; in assay [4], 0.088 µM; in assay [5] (setting [8]), 0.0297 µM.
The matching figures for `N#Cc1sc(C(=O)Nc2cc(F)c(=O)n(CC(F)F)c2)cc1C(F)(F)F` [Compound 96c]: 10.5 µM, more than 10 µM, more than 10 µM, not below 10 µM and 29.3 µM.
Take `O=C(Nc1ccc(=O)n(CCF)c1)c1cc(Cl)c(Cl)s1` [Compound 80]: the IC50 in assay [1] (Table 3.1) stood at 0.209 µM; in assay [3] it was 11.5 µM; in assay [4], 6.25 µM; in assay [5] (setting [7]), 0.758 µM.
Take `N#Cc1cc(C(=O)Nc2cc(F)c(=O)n(CC(F)(F)F)c2)sc1C#N` [Compound 190]: the IC50 in assay [1] (Table 3.1) was 0.0201 µM; in assay [2], 0.035 µM; in assay [3] it was 12 µM; in assay [4], 3.9 µM; in assay [5] (setting [7]), 0.0851 µM.
As for `CCn1cc(NC(=O)c2cc(C#N)c(C#N)s2)cc(F)c1=O` [Compound 188], the IC50 was found to be 0.0305 µM in assay [1] (Table 3.1); 0.0222 µM in assay [2]; 18.1 µM in assay [3]; 9.9 µM in assay [4]; 0.119 µM in assay [5] (setting [7]).
For the compound `N#Cc1sc(C(=O)Nc2cc(F)c(=O)n(CC(F)(F)F)c2)cc1Cl` [Compound 140], the IC50 in assay [1] (Table 3.1) was 0.0467 µM; in assay [2], 0.089 µM; in assay [3] it was 1.25 µM; in assay [5] (setting [7]) it was 0.147 µM.
On to `O=C(Nc1cc(F)c(=O)n(CCF)c1)c1cc(F)c(F)s1` [Compound 259], for which the IC50 amounted to 0.0511 µM in assay [1] (Table 3.1), 2.46 µM in assay [3], 0.177 µM in assay [4] and 0.228 µM in assay [5] (setting [7]).
For `Cn1c(C(=O)Nc2ccc(=O)n(-c3ccccc3)c2)cc(Cl)c1Cl` [Compound 47], the IC50 in assay [1] (Table 3.1) is more than 50 µM; in assay [4] it was not below 30 µM.
Take `O=C(Nc1cc(F)c(=O)n(CC(F)F)c1)c1cc(F)c(Cl)s1` [Compound 323]: the IC50 in assay [1] (Table 3.1) was found to be 0.0192 µM; in assay [3], 0.313 µM; in assay [4], 0.106 µM; in assay [5] (setting [7]), 0.0683 µM.
As for `O=C(Nc1cc(F)c(=O)n(CCF)c1)c1cc(F)c(C(F)F)s1` [Compound 324], the IC50 stood at 0.0349 µM in assay [1] (Table 3.1), 0.282 µM in assay [4] and 0.137 µM in assay [5] (setting [7]).
Regarding `N#Cc1ncc(C(=O)Nc2cc(Cl)c(=O)n(CCF)c2)s1` [Compound 148], the IC50 in assay [1] (Table 3.1) was 0.0127 µM; in assay [2], 0.0222 µM; in assay [3], not below 20 µM.
Turning to `N#Cc1cc(C(=O)Nc2cc(F)c(=O)n(CCF)c2)[nH]n1` [Compound 176], the IC50 was 0.0552 µM in assay [1] (Table 3.1); 0.0818 µM in assay [2]; not below 20 µM in assay [3]; not below 20 µM in assay [4]; 0.267 µM in assay [5] (setting [7]).
Regarding `CCn1cc(NC(=O)c2cc(C#N)c(C#N)s2)cc(Cl)c1=O` [Compound 191], the IC50 in assay [1] (Table 3.1) worked out at 0.0459 µM; in assay [2], 0.0653 µM; in assay [3], 13.4 µM; in assay [4], 8.3 µM; in assay [5] (setting [7]) it was 0.184 µM.
For `O=C(Nc1cc(F)c(=O)n(CCF)c1)c1cc(F)c(Cl)s1` [Compound 260] the same measures were 0.0153 µM, 0.0182 µM, 0.528 µM, 0.093 µM and 0.0654 µM.
Regarding `N#Cc1cc(C(=O)Nc2cc(F)c(=O)n(CCF)c2)sc1Cl` [Compound 196], the IC50 in assay [1] (Table 3.1) was determined as 0.0382 µM; in assay [2] it was 0.0181 µM; in assay [3], 0.597 µM; in assay [5] (setting [7]), 0.181 µM.
Regarding `Cc1ncc(C#Cc2cc(C(=O)Nc3cc(F)c(=O)n(CC(F)F)c3)sc2Cl)o1` [Compound 62c], the IC50 is 0.00805 µM in assay [1] (Table 3c.1); 0.548 µM in assay [3]; more than 10 µM in assay [6]; 0.089 µM in assay [4]; 0.0268 µM in assay [5] (setting [8]).
On to `CCn1cc(NC(=O)c2cc(Cl)c(Cl)s2)ccc1=O` [Compound 43], for which the IC50 was determined as 1.26 µM in assay [1] (Table 3.1) and 15.2 µM in assay [4].
With `O=C(Nc1cc(F)c(=O)n(CCF)c1)c1cc(Cl)c(Cl)s1` [Compound 129], the IC50 in assay [1] (Table 3.1) worked out at 0.0512 µM; in assay [2] it was 0.114 µM; in assay [3], 0.904 µM; in assay [5] (setting [7]) it was 0.196 µM.
The matching figures for `N#Cc1cc(C(=O)Nc2cc(F)c(=O)n(CCF)c2)sc1C#N` [Compound 189]: 0.00909 µM, 0.0234 µM, 9.69 µM and 0.0337 µM.
The matching figures for `N#Cc1sc(C(=O)Nc2cc(F)c(=O)n(CC(F)F)c2)cc1Cl` [Compound 285]: 0.0272 µM, 0.00922 µM, 0.934 µM and 0.0868 µM.
Consider `N#Cc1ncc(C(=O)Nc2cc(F)c(=O)n(CC(F)(F)F)c2)o1` [Compound 267], for which the values for the IC50 in assay [1] (Table 3.1), in assay [4] and in assay [5] (setting [7]) were more than 50 µM, not below 10 µM and more than 50 µM, respectively.
`N#Cc1cc(C(=O)Nc2cc(Cl)c(=O)n(CCF)c2)sc1C#N` [Compound 192]: the IC50 in assay [1] (Table 3.1) is 0.0171 µM; in assay [2], 0.0219 µM; in assay [3] it was not below 20 µM; in assay [4], 4.2 µM; in assay [5] (setting [7]) it was 0.0874 µM.
`N#Cc1sc(C(=O)Nc2cc(Cl)c(=O)n(CCF)c2)cc1Cl` [Compound 125, 4-Chloro-N-(5-chloro-1-(2-fluoroethyl)-6-oxo-1,6-dihydropyridin-3-yl)-5-cyanothiophene-2-carboxamide]: the IC50 in assay [1] (Table 3.1) stood at 0.0309 µM; in assay [2], 0.0661 µM; in assay [3] it was 1.16 µM; in assay [4], 0.484 µM; in assay [5] (setting [7]) it was 0.108 µM.
With `O=C(Nc1cc(F)c(=O)n(CC(F)F)c1)c1cc(F)c(C(F)F)s1` [Compound 325], the IC50 in assay [1] (Table 3.1) turned out to be 0.0355 µM; in assay [4], 0.312 µM; in assay [5] (setting [7]), 0.163 µM.
As for `O=C(Nc1cc(F)c(=O)n(CC(F)F)c1)c1cc(C#Cc2ccncc2)c(Cl)s1` [Compound 345], the IC50 in assay [1] (Table 3.1) is 0.0165 µM; in assay [3], 0.355 µM; in assay [6] it was more than 10 µM; in assay [4], 0.058 µM; in assay [5] (setting [7]) it was 0.0379 µM.
As for `O=C(Nc1cc(F)c(=O)n(CCF)c1)c1cc(Cl)c(C(F)(F)F)s1` [Compound 249], the IC50 in assay [1] (Table 3.1) is 0.0358 µM; in assay [2], 0.07 µM; in assay [3], 0.734 µM; in assay [4], 0.323 µM; in assay [5] (setting [7]) it was 0.26 µM.
As for `O=C(Nc1cc(F)c(=O)n(CCF)c1)c1cnc(C(F)(F)F)s1` [Compound 265], the IC50 amounted to 0.0815 µM in assay [1] (Table 3.1); 0.143 µM in assay [2]; 7.3 µM in assay [3]; 0.851 µM in assay [4]; 0.59 µM in assay [5] (setting [7]).
